logD data for two compounds are collected here from the SangsterLogP compilation.

A word on the logD: it is lipophilicity at a set pH, counting ionised and neutral species. High values mean a more lipophilic compound, low ones a more hydrophilic compound.

The conditions of this data set: pH 7.4.

The compound `CS(=O)CCNC(=O)c1cc2cc(S(N)(=O)=O)sc2s1` (configuration not stated) gave a logD of -0.15.

`NS(=O)(=O)c1cc2cc(C(=O)NCC(O)CO)sc2s1` (configuration not stated) gave a logD of 0.35.
